Laboratory results from PMC11215077, “Antiviral activity of temporin-1CEb analogues against gingival infection with herpes simplex virus type 1” (Frontiers in Oral Health, 2024).
Values after ≈ are worked out from the molar mass of the structure shown. Like-named read-outs stand apart in the source and are kept apart here. Square brackets hold non-standard residues; d marks the D form. Peptide text beside a SMILES is read from it. AEEA = NCCOCCOCC(=O)O

Experiments:
HSV-1 [1] = assay: Antiviral activity in 3D organotypic model of human gingiva (OTG); assay type: cell-based, herpes simplex virus type 1; settings: 15 μg/ml; H&E stained sections; Figure 5A
Experimental: Protocol was described previously ([34]). Briefly, to prepare 3D cultures, 150,000 gingival fibroblasts suspended in 10% FBS in DMEM were mixed with 2.4 ml of ice-cold Matrigel® (Corning) (final concentration 7 mg/ml) and placed in the middle of 12-well cell culture inserts (Greiner). Three days later, 1 × 10^6 TIGK cells suspended in EPM1 were added to the top of the insert. On the ninth day after the start of the procedure, the old culture medium was removed and EPM2 was added to the bottom of the insert. The epithelial layer on the top was exposed to the air, which promotes epithelial differentiation and then stratification. About 8–10 days after air-liquid interphase, 3D cultures of gingiva were used for further experiments.
The apical surface of OTG model was washed three times with PBS and then inoculated with 100 μl of viral stock (TCID50 400 /ml) in the presence of DAL-PEG-LK6 or CPP1-PEG-LK6 (15 μg/ml) for 2 h at 4°C. Following incubation, the unbound HSV-1 was removed by washing with PBS for 10 min at 37°C, and the OTG cultures were maintained at an air-liquid interface for the rest of the experiment. To determine viral yield, 120 μl of PBS was applied to the apical surface of the OTG, and harvested for DNA isolation after 10 min of incubation at 37°C.
Briefly, cell inserts were fixed in 10% formaldehyde at 4°C for 1 h. After embedding in paraffin, 3D cultures were cut into 5 μm sections and stained with H&E solution. For immunohistochemical analysis, slides were incubated for 1 h at room temperature in blocking buffer (5% normal goat serum, 0.1% saponin in PBS) and stained with primary antibodies anti-HSV-1 (1:100, 1% normal goat serum, 0.1% saponin in PBS; Abcam) and secondary antibodies: goat anti-rabbit conjugated with Alexa Fluor 488 (1:2000; Cell Signaling). Finally, cell nuclei were stained with ProLong Antifade Mounting Medium with DAPI. Slides were visualized with EVOS FL Cell Imaging System (Thermo Fisher Scientific).
(§1) Viral DNA was isolated from the conditioned media or the apical washes of inserts (OTG model) using Viral DNA/RNA Isolation Kit (A&A Biotechnology). The virus yield assessed by quantitative real-time PCR (qPCR). The reaction was carried out in a CFX96 Touch Real-Time PCR Detection System (Bio-Rad), in a 10 μl reaction mixture consisting of TaqMan^TM Fast Advanced Master Mix, TaqMan^TM Microbe Detection assay against HSV-1 (Vi04230116_s1) and 1 μl of viral DNA. The temperature profile was 10 s at 95°C, followed by 40 cycles of 3 s at 95°C and 20 s at 60°C. DNA quantification standards were prepared. In summary, a fragment of viral DNA was amplified using the primers listed above and cloned into the pTZ57R/T plasmid using the InsTAclone PCR cloning kit. The plasmid was propagated in E. coli, purified with the GeneJet Plasmid Miniprep Kit, and digested with the EcoR1 restriction enzyme. The number of copies per mL was estimated after the concentration of linearized DNA was assessed spectrophotometrically.

HSV-1 [2] = settings: concentration reducing viral replication by 50%; TIGKs cells pre-treated, infected and cultivated with compound; qPCR; mean of two independent experiments
Experimental: Data were expressed as means ± SD. Statistical significance was determined using unpaired t-test, one-way ANOVA, and/or two-way ANOVA for direct comparisons between single groups. A p-value <0.05 was considered statistically significant. We used GrapPad Prism 10 software for the analyses. […]

HSV-1 [3] = assay: Virus inhibition (replication) assay in Vero E6 and TIGKs cells, qPCR, titration, gB Western blot; assay type: cell-based, herpes simplex virus type 1; settings: 48 h p.i.
Experimental: HSV-1 stocks were generated by infecting Vero E6 cells. Cells were lysed at 48 h p.i. by two freeze-thaw cycles. The virus containing fluid was aliquoted and stored at −80°C. A control Vero E6 cell lysate from mock-infected cells was prepared in the same manner as the virus stock. Virus yield was assessed by virus titration on fully confluent Vero E6 cells in 96-well plates, according to the method of Reed & Muench ([32]). Plates were incubated at 37°C for 48 h and the occurrence of a cytopathic effect was scored using an inverted microscope, and TCID50 (50% tissue culture infection dose) was calculated.
Vero E6 or TIGKs cells were seeded in 12-well plates and cultured for 48 h. […] After 30 min of incubation at 37°C, cells were infected with HSV-1 at TCID50 400 /ml or treated with mock. After 2 h of infection at 37°C, unbound viral particles were removed by washing with PBS, and culture media supplemented with peptide conjugates were applied. Following 48 h of incubation, media were collected, and the quantity of HSV-1 DNA copies was assessed using titration and qPCR.
as §1
Protein extracts were prepared using lysis buffer (0.25% Na-deoxycholate, 0.5% Nonidet P-40, 0.05% SDS, protease inhibitor mixture, 2.5 mM EDTA in PBS), and the protein concentration was assessed using Pierce BCA (Thermo Fisher) protein assay kit. Equal amounts of cell extracts were separated on 10% SDS-PAGE gel and electrotransferred onto polyvinylidene difluoride membranes for gB and β-actin in transfer buffer (25 mM Tris, 0.2 M glycine, and 20% ethanol) for 90 min at 100 V. Nonspecific binding sites were blocked for 90 min in 5% skimmed milk prepared in TBST buffer (20 mM Tris, pH 7.5, 0.5 M NaCl, 0.05% Tween 20). Membranes were further incubated overnight at 4°C with primary antibodies: mouse anti-HSV-1 + HSV-2 gB (1:5000; abcam) and mouse anti-β-actin (1:4,000; BD Biosciences). The following day, membranes were washed three times with TBST buffer and incubated with HRP-conjugated secondary antibodies for 60 min at 37°C: goat anti-mouse IgG (1:20,000; β-actin; BD Bioscience) or sheep anti-mouse IgG (1:50,000; gB; Sigma Aldrich). Next, blots were washed five times for 5 min in TBST buffer, developed using Luminata Cresecendo Substarte (Merck) and exposed to AGFA medical x-ray film. Densitometry analysis was performed using ImageJ 1.52q software.

[4] = Analytical RP-HPLC retention time; settings: Phenomenex Jupiter 4 μ Proteo 90 Å, 250 × 4.60 mm, listed as basic physicochemical characteristic
Experimental: The synthesized compounds were then purified by reverse-phase high-performance liquid chromatography (RP-HPLC) on a Waters system (Phenomenex Jupiter 4 μ Proteo 90 Å column, 250 × 10 mm). A linear gradient from 10% to 80% of solvent B over 60 min (Solvent A: 0.1% TFA in water; Solvent B: 80% acetonitrile in Solvent A) was employed with a flow rate 5 ml/min. The homogeneity of the final peptide fractions was analyzed using a Shimadzu HPLC System (Shimadzu Europe GmbH, Duisburg, Germany) equipped with a Phenomenex Jupiter 4 μ Proteo 90 Å column, 250 × 4.60 mm. The mass spectra of the synthesized peptides were recorded using a Biflex III MALDI-TOF mass spectrometry (Bruker, Mannheim, Germany) with α-cyano-4-hydroxy-cinnamic acid (CCA) or 2,5-dihydroxybenzoic acid (DHB) used as the matrix.

HSV-1 [5] = test system: HSV-1; parameters: method as in PMID 29483113; settings: different model of epithelial cells; cited from earlier work
Source text: In our studies, we initially utilized the Vero E6 cell line, which has been a long-standing choice in herpesviruses research ([40], [41]).

Experimental for in vitro: The viability of Vero E6 and TIGKs cells was examined by the XTT Cell Viability Assay kit (Biological Industries, USA). Briefly, cells were treated with indicated concentrations of the peptide conjugates for 48 h at 37°C. Next, the fresh medium was added to the cells and 50 μl of the activated XTT reagent [2,3-bis(2-methoxy-4-nitro-5-sulphenyl)-2H-tetrazolium-5-carboxanilide] was added and further incubated for 2 h at 37°C. Absorbance was measured at a wavelength of 480 nm using FlexStation 3 microplate reader (Molecular Device, Wokingham, UK). The results were expressed normalized against a control of untreated cells (100% viability). To assess the effect of peptide conjugate on the integrity of the plasma membrane, the LDH release assay was performed using the CytoTox96 nonradioactive cytotoxicity assay kit (Promega, Madison, WI, USA) according to the manufacturer's instructions. Cytotoxicity was calculated with the formula: % cytotoxicity = 100 × (experimental LDH release/ maximum LDH release), where maximum LDH release is after lysis solution addition (Triton X-100). Relative amounts of LDH release were measured (absorbance at 490 nm) using FlexStation 3 microplate reader (Molecular Device, Wokingham, UK). […]
Data were expressed as means ± SD. Statistical significance was determined using unpaired t-test, one-way ANOVA, and/or two-way ANOVA for direct comparisons between single groups. […]

CC[C@H](C)[C@H](NC(=O)COCCOCCNC(=O)[C@H](CCCNC(=N)N)NC(=O)[C@H](CC(C)C)NC(=O)[C@H](Cc1ccccc1)NC(=O)CNC(=O)[C@@H](C)NC(=O)[C@@H](N)Cc1ccc(O)cc1)C(=O)N[C@@H](CCCCN)C(=O)N[C@@H](CCCCN)C(=O)N[C@H](C(=O)N[C@@H](CC(C)C)C(=O)N[C@@H](CO)C(=O)N[C@H](CCCCN)C(=O)N[C@H](C(=O)N[C@@H](CCCCN)C(=O)N[C@@H](CCCCN)C(=O)N[C@@H](CC(C)C)C(=O)N[C@@H](CC(C)C)C(N)=O)[C@@H](C)CC)[C@@H](C)CC [DAL-PEG-DK5] (H-Y[dA]GFLR[AEEA]IKKILS[dK]IKKLL-NH2)
morphology of epithelial cells in OTG (H&E) (HSV-1 [1]): no changes in the morphology of epithelial cells

CC[C@H](C)[C@H](NC(=O)COCCOCCNC(=O)[C@H](CCCNC(=N)N)NC(=O)[C@H](CC(C)C)NC(=O)[C@H](Cc1ccccc1)NC(=O)CNC(=O)[C@@H](C)NC(=O)[C@@H](N)Cc1ccc(O)cc1)C(=O)N[C@@H](CCCCN)C(=O)N[C@@H](CCCCN)C(=O)N[C@H](C(=O)N[C@@H](CC(C)C)C(=O)N[C@@H](CO)C(=O)N[C@@H](CCCCN)C(=O)N[C@H](C(=O)N[C@@H](CCCCN)C(=O)N[C@@H](CCCCN)C(=O)N[C@@H](CC(C)C)C(=O)N[C@@H](CC(C)C)C(=O)N[C@@H](CCCCN)C(N)=O)[C@@H](C)CC)[C@@H](C)CC [DAL-PEG-LK6] (H-Y[dA]GFLR[AEEA]IKKILSKIKKLLK-NH2)
IC50 (HSV-1 [2]): 3.699 µg/mL (≈ 1.54 µM) | CC50 at 48 h (in vitro): 33.8 µg/mL (≈ 14.1 µM)

RKKRRQRRR-O2Oc-IKKILSKIKKLLK-NH2 [CPP2-PEG-LK6, conjugate of cationic cell-penetrating peptide (HIV-1 TAT49–57 fragment) with LK6 via PEG linker]
reduction in viral yield in the qPCR test (HSV-1 [3]; Figure 1C, Vero E6 (DAL-PEG-LK6 and CPP1-PEG-LK6 25 μg/ml; CPP2-PEG-LK6 10 μg/ml) and TIGKs cells (15 μg/ml)): 1 log | reduction of virus replication in titration assay (HSV-1 [3]; Figure 1D, both cell models (Vero E6, TIGKs), normalized to untreated control): 97% | Rt [4]: 20.094

temporin B
IC50 (HSV-1 [5]): 93 µg/mL
